According to patent publication US8138392B2, “Disease resistant plants” (The Samuel Roberts Noble Foundation, Inc., priority 2008, dated 2012):
Entries after “also recorded” stand apart in the source; their conditions may differ.

Test system: P. omnivora
Test: in vitro fungal growth inhibition assay
Assay type: cell-based, Phymatotrichopsis omnivora

## O=c1cc(-c2ccc(O)cc2)oc2cc(O)ccc12 [7,4-dihydroxyflavone]
At 0.1 mM
  fungal growth inhibition in in vitro assays: inhibited fungal growth
No concentration stated
  inhibitory activity towards P. omnivora in in vitro assays: very high inhibitory activity; also recorded: inhibitory to P. omnivora
